{"source": "ChEMBL document CHEMBL4020831", "about": "“Discovery of GDC-0853: A Potent, Selective, and Noncovalent Bruton's Tyrosine Kinase Inhibitor in Early Clinical Development” (J Med Chem, 2018)", "key": {"Rattus norvegicus [1]": {"system": "Rattus norvegicus", "assay": "Antiinflammatory activity in Lewis rat collagen-induced arthritis model assessed as reduction in ankle cartilage damage at 0.06 to 16 mg/kg, po administered qd for 16 days", "type": "functional, organism-based"}, "Cytochrome P450 2C9": {"molecular_target": "Cytochrome P450 2C9 (Homo sapiens, UniProt P11712)", "sequence (P11712 whole entry)": "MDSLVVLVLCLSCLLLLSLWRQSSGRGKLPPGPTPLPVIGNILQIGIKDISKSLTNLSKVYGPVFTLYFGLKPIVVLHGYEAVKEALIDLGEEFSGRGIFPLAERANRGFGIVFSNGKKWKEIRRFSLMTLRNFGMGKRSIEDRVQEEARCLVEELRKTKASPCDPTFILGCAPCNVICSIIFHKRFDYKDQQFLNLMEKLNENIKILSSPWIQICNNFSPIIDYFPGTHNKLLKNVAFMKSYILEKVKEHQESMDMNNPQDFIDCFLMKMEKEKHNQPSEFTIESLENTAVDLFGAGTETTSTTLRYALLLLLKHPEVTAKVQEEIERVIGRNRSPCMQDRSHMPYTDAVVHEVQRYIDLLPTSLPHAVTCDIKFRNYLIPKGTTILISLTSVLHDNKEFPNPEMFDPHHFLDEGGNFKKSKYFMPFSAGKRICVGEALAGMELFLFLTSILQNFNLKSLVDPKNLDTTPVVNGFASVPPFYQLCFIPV", "assay": "Inhibition of CYP2C9 (unknown origin)", "type": "ADME"}, "TXK": {"molecular_target": "T1, TXK (Homo sapiens, UniProt P42681)", "T1 sequence (P42681 whole entry)": "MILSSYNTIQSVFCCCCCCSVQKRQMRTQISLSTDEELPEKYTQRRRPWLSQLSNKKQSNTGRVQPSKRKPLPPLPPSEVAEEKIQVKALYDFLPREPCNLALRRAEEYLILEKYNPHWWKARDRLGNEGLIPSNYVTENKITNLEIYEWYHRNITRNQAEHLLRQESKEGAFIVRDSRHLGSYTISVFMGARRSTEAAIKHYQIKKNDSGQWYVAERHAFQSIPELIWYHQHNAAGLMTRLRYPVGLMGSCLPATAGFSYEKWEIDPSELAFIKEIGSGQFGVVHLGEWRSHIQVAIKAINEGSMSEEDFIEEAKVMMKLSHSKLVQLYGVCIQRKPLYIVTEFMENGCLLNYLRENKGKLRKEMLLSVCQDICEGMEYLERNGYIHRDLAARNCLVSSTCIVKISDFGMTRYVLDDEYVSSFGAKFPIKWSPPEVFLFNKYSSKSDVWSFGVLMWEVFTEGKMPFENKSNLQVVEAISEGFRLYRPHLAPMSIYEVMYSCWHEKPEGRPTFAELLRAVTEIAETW", "assay": "Inhibition of human full length GST-tagged TXK expressed in baculovirus at 1 uM by Z'-LYTE assay"}, "Salmonella typhimurium [2]": {"system": "Salmonella typhimurium", "assay": "Genotoxicity in Salmonella typhimurium TA100 after 48 to 72 hrs in presence of liver S9 fraction by Ames test", "type": "toxicity", "details": "salmonella enterica subsp. enterica serovar typhimurium"}, "PBL [3]": {"system": "PBL", "assay": "Genotoxicity in human PBL assessed as induction of micronuclei at 500 ug/ml in presence of rat liver S9 fraction by cytochalasin B-block method", "type": "toxicity, cell-based"}, "ERBB2": {"molecular_target": "ERBB2 (Homo sapiens, UniProt P04626)", "sequence (P04626 whole entry)": "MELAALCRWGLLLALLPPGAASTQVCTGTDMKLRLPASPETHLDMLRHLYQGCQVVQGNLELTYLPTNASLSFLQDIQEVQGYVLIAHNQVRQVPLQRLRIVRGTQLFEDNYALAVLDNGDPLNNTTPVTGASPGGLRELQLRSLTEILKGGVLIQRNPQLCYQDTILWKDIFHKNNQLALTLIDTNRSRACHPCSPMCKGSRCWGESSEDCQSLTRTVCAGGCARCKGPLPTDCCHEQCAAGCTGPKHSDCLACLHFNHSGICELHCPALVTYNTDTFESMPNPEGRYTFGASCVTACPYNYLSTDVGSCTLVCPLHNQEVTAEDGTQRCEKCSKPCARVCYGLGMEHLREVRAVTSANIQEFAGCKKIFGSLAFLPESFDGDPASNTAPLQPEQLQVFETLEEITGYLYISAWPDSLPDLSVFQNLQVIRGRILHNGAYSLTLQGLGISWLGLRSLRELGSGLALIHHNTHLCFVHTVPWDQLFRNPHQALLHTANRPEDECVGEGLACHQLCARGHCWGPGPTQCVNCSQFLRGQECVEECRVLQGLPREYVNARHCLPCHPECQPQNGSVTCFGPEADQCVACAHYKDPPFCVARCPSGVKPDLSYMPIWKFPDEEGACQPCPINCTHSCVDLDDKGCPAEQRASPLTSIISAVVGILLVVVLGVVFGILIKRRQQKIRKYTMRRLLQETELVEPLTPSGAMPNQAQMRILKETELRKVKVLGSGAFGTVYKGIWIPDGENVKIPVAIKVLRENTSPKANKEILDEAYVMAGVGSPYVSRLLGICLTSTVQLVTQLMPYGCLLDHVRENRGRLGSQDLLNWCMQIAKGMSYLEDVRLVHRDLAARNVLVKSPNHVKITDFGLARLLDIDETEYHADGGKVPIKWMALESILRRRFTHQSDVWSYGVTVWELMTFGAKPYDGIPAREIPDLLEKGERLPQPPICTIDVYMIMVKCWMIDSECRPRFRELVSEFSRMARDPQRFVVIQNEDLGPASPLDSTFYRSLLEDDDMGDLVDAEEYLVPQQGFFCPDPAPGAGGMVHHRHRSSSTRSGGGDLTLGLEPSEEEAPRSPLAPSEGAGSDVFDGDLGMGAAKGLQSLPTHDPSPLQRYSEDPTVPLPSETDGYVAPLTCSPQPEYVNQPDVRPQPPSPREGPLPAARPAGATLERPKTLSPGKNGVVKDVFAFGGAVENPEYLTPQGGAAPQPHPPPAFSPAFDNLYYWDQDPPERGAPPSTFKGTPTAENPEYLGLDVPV", "assay": "Inhibition of recombinant human cytoplasmic His-tagged ERBB2 expressed in baculovirus at 1 uM by Z'-LYTE assay"}, "Cytochrome P450 3A4": {"molecular_target": "Cytochrome P450 3A4 (Homo sapiens, UniProt P08684)", "sequence (P08684 whole entry)": "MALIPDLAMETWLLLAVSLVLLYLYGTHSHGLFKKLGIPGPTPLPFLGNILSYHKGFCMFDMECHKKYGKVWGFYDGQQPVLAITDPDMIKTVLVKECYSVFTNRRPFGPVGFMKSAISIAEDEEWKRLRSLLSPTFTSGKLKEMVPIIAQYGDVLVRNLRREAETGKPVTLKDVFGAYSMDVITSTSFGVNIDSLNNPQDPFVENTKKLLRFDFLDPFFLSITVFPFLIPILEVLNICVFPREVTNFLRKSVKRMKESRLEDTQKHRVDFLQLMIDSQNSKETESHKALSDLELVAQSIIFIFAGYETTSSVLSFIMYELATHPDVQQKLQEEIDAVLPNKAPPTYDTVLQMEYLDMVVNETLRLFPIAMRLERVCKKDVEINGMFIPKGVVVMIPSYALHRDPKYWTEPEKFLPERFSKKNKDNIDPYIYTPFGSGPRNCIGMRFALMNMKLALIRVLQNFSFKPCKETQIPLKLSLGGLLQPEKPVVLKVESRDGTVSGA", "assay": "Inhibition of CYP3A4 (unknown origin)", "type": "ADME"}, "Salmonella typhimurium [4]": {"system": "Salmonella typhimurium", "assay": "Genotoxicity in Salmonella typhimurium TA1535 after 48 to 72 hrs in absence of liver S9 fraction by Ames test", "type": "toxicity", "details": "salmonella enterica subsp. enterica serovar typhimurium"}, "Rattus norvegicus [5]": {"system": "Rattus norvegicus", "assay": "Time at which plasma concentration stays above in vitro IC50 for BTK autophosphorylation at Y223 in rat whole blood in Lewis rat collagen-induced arthritis modelt at 0.125 to 2 mg/kg, po bid measured during 12 hrs dosing"}, "Salmonella typhimurium [6]": {"system": "Salmonella typhimurium", "assay": "Genotoxicity in Salmonella typhimurium TA97a after 48 to 72 hrs in absence of liver S9 fraction by Ames test", "type": "toxicity", "details": "salmonella enterica subsp. enterica serovar typhimurium"}, "Rattus norvegicus [7]": {"system": "Rattus norvegicus", "assay": "Time at which plasma concentration stays above in vitro IC90 for BTK autophosphorylation at Y223 in rat whole blood in Lewis rat collagen-induced arthritis model at 1 to 16 mg/kg, po qd measured during 24 hrs dosing"}, "PBL [8]": {"system": "PBL", "assay": "Genotoxicity in human PBL assessed as induction of micronuclei at 500 ug/ml in absence of rat liver S9 fraction by cytochalasin B-block method", "type": "toxicity, cell-based"}, "Salmonella typhimurium [9]": {"system": "Salmonella typhimurium", "assay": "Genotoxicity in Salmonella typhimurium TA98 after 48 to 72 hrs in presence of liver S9 fraction by Ames test", "type": "toxicity", "details": "salmonella enterica subsp. enterica serovar typhimurium"}, "[10]": {"assay": "Aqueous solubility of the compound in 0.1 N HCl", "type": "physicochemical", "details": "buffer"}, "Rattus norvegicus [11]": {"system": "Rattus norvegicus", "assay": "Antiinflammatory activity in Lewis rat collagen-induced arthritis model assessed as reduction in ankle pannus at 0.06 to 16 mg/kg, po administered qd for 16 days", "type": "functional, organism-based"}, "Rattus norvegicus [12]": {"system": "Rattus norvegicus", "assay": "Antiinflammatory activity in Lewis rat collagen-induced arthritis model assessed as reduction in bone resorption at 0.125 to 2 mg/kg, po administered bid for 16 days", "type": "functional, organism-based"}, "[13]": {"assay": "Permeability across apical to basolateral in MDCK1 cells", "type": "ADME, cell-based, Canis lupus familiaris", "details": "dog, MDCK; read-out: permeability"}, "Salmonella typhimurium [14]": {"system": "Salmonella typhimurium", "assay": "Genotoxicity in Salmonella typhimurium TA1535 after 48 to 72 hrs in presence of liver S9 fraction by Ames test", "type": "toxicity", "details": "salmonella enterica subsp. enterica serovar typhimurium"}, "Rattus norvegicus [15]": {"system": "Rattus norvegicus", "assay": "Antiinflammatory activity in Lewis rat collagen-induced arthritis model assessed as reduction in ankle inflammation at 0.125 to 2 mg/kg, po administered bid for 16 days", "type": "functional, organism-based"}, "TEC": {"molecular_target": "T2, TEC (Homo sapiens, UniProt P42680)", "T2 sequence (P42680 whole entry)": "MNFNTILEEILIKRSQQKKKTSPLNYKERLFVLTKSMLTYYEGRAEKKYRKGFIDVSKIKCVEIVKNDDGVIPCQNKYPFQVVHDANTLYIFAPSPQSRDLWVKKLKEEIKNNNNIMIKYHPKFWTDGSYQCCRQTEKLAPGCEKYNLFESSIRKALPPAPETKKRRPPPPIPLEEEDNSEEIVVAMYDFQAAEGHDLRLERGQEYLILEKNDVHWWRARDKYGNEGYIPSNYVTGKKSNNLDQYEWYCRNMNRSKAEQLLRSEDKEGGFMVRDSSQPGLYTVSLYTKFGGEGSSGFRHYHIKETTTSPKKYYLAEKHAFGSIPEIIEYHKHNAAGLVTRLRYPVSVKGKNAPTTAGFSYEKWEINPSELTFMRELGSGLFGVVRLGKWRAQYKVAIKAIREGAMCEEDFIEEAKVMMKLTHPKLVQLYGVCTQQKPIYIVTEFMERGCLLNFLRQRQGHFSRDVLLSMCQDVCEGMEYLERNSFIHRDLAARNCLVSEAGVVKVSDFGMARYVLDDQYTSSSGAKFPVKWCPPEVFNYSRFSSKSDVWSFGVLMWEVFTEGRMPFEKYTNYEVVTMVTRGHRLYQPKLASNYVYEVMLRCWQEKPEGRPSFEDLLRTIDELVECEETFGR", "assay": "Inhibition of recombinant human cytoplasmic full length His-tagged TEC expressed in baculovirus at 1 uM by Z'-LYTE assay"}, "Rattus norvegicus [16]": {"system": "Rattus norvegicus", "assay": "Antiinflammatory activity in Lewis rat collagen-induced arthritis model assessed as reduction in ankle pannus at 0.125 to 2 mg/kg, po administered bid for 16 days", "type": "functional, organism-based"}, "ERBB4": {"molecular_target": "ERBB4 (Homo sapiens, UniProt Q15303)", "sequence (Q15303 whole entry)": "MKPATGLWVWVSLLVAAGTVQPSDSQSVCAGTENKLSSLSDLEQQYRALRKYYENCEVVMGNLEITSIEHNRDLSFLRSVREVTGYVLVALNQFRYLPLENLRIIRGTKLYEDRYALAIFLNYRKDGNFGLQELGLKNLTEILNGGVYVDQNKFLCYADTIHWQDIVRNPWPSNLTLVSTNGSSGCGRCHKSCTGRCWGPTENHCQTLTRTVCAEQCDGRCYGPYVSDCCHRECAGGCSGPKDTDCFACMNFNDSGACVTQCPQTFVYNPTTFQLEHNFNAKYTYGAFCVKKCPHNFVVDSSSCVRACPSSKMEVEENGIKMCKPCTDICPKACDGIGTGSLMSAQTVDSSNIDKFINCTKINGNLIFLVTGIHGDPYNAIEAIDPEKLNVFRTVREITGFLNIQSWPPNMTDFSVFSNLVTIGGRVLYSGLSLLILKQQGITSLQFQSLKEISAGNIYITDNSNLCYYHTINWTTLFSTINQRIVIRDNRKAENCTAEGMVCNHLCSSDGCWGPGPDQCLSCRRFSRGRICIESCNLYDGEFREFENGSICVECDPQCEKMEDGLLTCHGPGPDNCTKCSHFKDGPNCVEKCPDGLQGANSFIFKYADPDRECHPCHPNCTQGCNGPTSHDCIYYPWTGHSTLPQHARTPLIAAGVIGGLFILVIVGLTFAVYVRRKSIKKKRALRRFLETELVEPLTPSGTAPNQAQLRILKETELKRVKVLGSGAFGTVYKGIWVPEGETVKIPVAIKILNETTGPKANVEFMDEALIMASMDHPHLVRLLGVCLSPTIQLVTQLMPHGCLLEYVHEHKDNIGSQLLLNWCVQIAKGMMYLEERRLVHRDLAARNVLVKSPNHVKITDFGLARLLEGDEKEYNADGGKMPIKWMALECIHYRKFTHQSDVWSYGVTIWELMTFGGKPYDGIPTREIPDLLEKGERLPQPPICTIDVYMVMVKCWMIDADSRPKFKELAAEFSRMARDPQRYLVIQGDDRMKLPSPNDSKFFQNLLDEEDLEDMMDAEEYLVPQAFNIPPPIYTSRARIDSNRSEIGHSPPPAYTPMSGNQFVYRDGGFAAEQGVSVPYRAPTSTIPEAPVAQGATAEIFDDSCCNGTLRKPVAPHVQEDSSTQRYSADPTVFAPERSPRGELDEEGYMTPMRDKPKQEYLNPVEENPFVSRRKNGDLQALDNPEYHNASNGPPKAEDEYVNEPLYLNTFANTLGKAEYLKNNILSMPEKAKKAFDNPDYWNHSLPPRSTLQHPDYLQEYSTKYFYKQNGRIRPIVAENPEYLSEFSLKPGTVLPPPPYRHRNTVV", "assay": "Inhibition of recombinant human cytoplasmic GST-tagged ERBB4 expressed in baculovirus at 1 uM by Z'-LYTE assay"}, "Rattus norvegicus [17]": {"system": "Rattus norvegicus", "assay": "Antiinflammatory activity in Lewis rat collagen-induced arthritis model assessed as reduction in ankle diameter AUC at 0.125 mg/kg, po administered bid for 16 days relative to control", "type": "functional", "details": "384 h"}, "Rattus norvegicus [18]": {"system": "Rattus norvegicus", "assay": "Antiinflammatory activity in Lewis rat collagen-induced arthritis model assessed as reduction in ankle diameter AUC at 1 mg/kg, po administered qd for 16 days relative to control", "type": "functional", "details": "384 h"}}, "note": "pIC50: −log10 of the molar value. Activity calls are given as the source filed them. The calls are words filed in the database; no cut-off is given here."}
{"compound": "C[C@H]1CN(C2COC2)CCN1c1ccc(Nc2cc(-c3ccnc(N4CCn5c(cc6c5CC(C)(C)C6)C4=O)c3CO)cn(C)c2=O)nc1", "note": "[FENEBRUTINIB]", "values": [{"measurement": "Activity", "setting": "Rattus norvegicus [1]", "result": "Active"}, {"measurement": "pIC50", "setting": "Cytochrome P450 2C9", "result": "< 5.30"}, {"measurement": "inhibition at 1 µM", "setting": "TXK", "result": 4, "unit": "%"}, {"measurement": "Activity", "setting": "Salmonella typhimurium [2]", "result": "Non-Toxic"}, {"measurement": "Activity", "setting": "PBL [3]", "result": "Non-Toxic"}, {"measurement": "inhibition at 1 µM", "setting": "ERBB2", "result": -1, "unit": "%"}, {"measurement": "pIC50", "setting": "Cytochrome P450 3A4", "result": "< 5.30"}, {"measurement": "Activity", "setting": "Salmonella typhimurium [4]", "result": "Non-Toxic"}, {"measurement": "Time", "setting": "Rattus norvegicus [5]", "result": 6, "unit": "h"}, {"measurement": "Activity", "setting": "Salmonella typhimurium [6]", "result": "Non-Toxic"}, {"measurement": "Time", "setting": "Rattus norvegicus [7]", "result": 12, "unit": "h"}, {"measurement": "Activity", "setting": "PBL [8]", "result": "Non-Toxic"}, {"measurement": "Activity", "setting": "Salmonella typhimurium [9]", "result": "Non-Toxic"}, {"measurement": "solubility", "setting": "[10]", "result": 35.9, "unit": "mg/mL"}, {"measurement": "Activity", "setting": "Rattus norvegicus [11]", "result": "Active"}, {"measurement": "Activity", "setting": "Rattus norvegicus [12]", "result": "Active"}, {"measurement": "Papp A→B", "setting": "[13]", "result": 15.1, "unit": "×10⁻⁶ cm/s"}, {"measurement": "Activity", "setting": "Salmonella typhimurium [14]", "result": "Non-Toxic"}, {"measurement": "Activity", "setting": "Rattus norvegicus [15]", "result": "Active"}, {"measurement": "inhibition at 1 µM", "setting": "TEC", "result": 23, "unit": "%"}, {"measurement": "Activity", "setting": "Rattus norvegicus [16]", "result": "Active"}, {"measurement": "inhibition at 1 µM", "setting": "ERBB4", "result": 1, "unit": "%"}, {"measurement": "inhibition in vivo at 0.125 mg/kg", "setting": "Rattus norvegicus [17]", "result": 50, "unit": "%"}, {"measurement": "inhibition in vivo at 1 mg/kg", "setting": "Rattus norvegicus [18]", "result": 71, "unit": "%"}]}
